{"source": "patent US20240165165A1", "about": "“PHARMACEUTICAL COMPOSITIONS AND THEIR METHODS OF USE” (The Trustees of Indiana University, priority 2021, published 2024)", "key": {"[1]": {"test_system": "EO771 mammary tumor cells in the lung of C57BL/6 mice", "assay": "In vivo extravasation assay", "parameters": "species or system mouse", "conditions": "co-injection into tail vein, 48 h", "experimental": "To evaluate the effects of CMs for tumor invasion, the in vivo extravasation assay was conducted. C57BL/6 female mice (5 mice per group) received an injection of 50 μl of fluorescently labeled EO771 cells (1.0×10^6 cells) into the lateral tail veins. Fluorescently labeled EO771 cells were prepared by culturing them with a green fluorescent dye (#4705, Sartorius, Gottingen, Germany) for 20 min at 37° C. Cells were then centrifuged with 1000 rpm for 5 min for harvesting the pellet. The pellet was re-suspended in PBS (placebo group) or osteocyte-derived CM (A5 CM group). Mice will be sacrificed after 48 h for histologically identifying extravascular tumor cells in the lung."}, "[2]": {"test_system": "EO771 cells in the inside of the skull", "assay": "Skull diffusion assay, MTT-based viability", "type": "cell-based, mouse", "conditions": "agent in the outside of the skull", "experimental": "(§1) Skull diffusion assay. The usage of human breast cancer tissues was approved by the Indiana University Institutional Review Board, and informed consent for research use was obtained from all patients. The experiment was performed following Indiana University's human research protection program policies. A breast cancer tissue (— 1 g; ER/PR+, HER2+), received from Simon Cancer Center Tissue Procurement Core, was manually fragmented with a scalpel into small pieces. Mouse skulls were isolated and rinsed with PBS. They were placed in a 24-well plate with the head top facing the well surface and tumor cells or breast cancer tissue fragments were grown. The well was filled with the control medium or osteocyte-derived CM. Fluphenazine (Sigma-Aldrich), a dopamine receptor antagonist that suppresses the growth of mammary tumor cells, was employed as a positive control to suppress tumor growth."}, "[3]": {"test_system": "human breast cancer fragments in the inside of the skull", "assay": "Skull diffusion assay, tissue fragments", "type": "cell-based", "conditions": "agent in the outside of the skull", "experimental": "as §1"}, "[4]": {"test_system": "phosphorylated Akt in MSCs", "assay": "Western blot of phosphorylated Akt", "type": "cell-based, mouse", "experimental": "(§2) Western blot analysis and protein array analysis. Western blot analysis was conducted using the procedure previously described. Antibodies against Lrp5, Runx2, Snail, TGFβ, sclerostin, Calr, p-eIF2α, eIF2α (Cell Signaling, Danvers, MA, USA), LIF, Trail (Novus Biologicals, Centennial, CO, USA), MMP9, NFATc1, cathepsin K (Santa Cruz Biotechnology, Dallas, TX, USA), p53, CXCL2, Ppib (Invitrogen, Carlsbad, CA, USA), Hsp90ab1 (Abcam, Cambridge, UK), and β-actin (Sigma, Saint Louis, MO, USA) were used. A proteome profiler mouse XL cytokine array kit (R&D Systems, Minneapolis, MN, USA) was also employed, and the expression of 111 cytokines and chemokines in MSC-derived CM was determined."}, "[5]": {"test_system": "4T1.2 cells", "assay": "Western blot of proteins in treated tumor cells", "type": "cell-based, mouse", "conditions": "for tumor-promoting genes (Lrp5, MMP9, Runx2, TGFβ, Snail) in 4T1.2 cells: Western blot", "experimental": "as §2"}, "[6]": {"test_system": "4T1.2 mammary tumor cells", "assay": "Scratch-based migration assay", "type": "cell-based, mouse", "experimental": "Two-dimensional motility assay. A wound-healing scratch motility assay was performed to evaluate 2-dimensional cell motility. Approximately 4×10^5 cells were seeded in 12-well plates. After cell attachment, a plastic pipette tip was used to scratch a gap on the cell layer. Floating cells were removed, and CM was added. Images of the cell-free scratch zone were obtained via an inverted microscope at 0 h, and the areas newly occupied with cells were determined 24-48 h after scratching. The areas were quantified with IMAGE J (National Institutes of Health, Bethesda, MD, USA).\nIn vitro assays. Cellular viability was examined using an MTT assay (Invitrogen, Carlsbad, CA, USA) with the procedure previously described, as well as an EdU assay with a fluorescence-based cell proliferation kit (Thermo-Fisher, Waltham, MA, USA). […]"}, "[7]": {"test_system": "4T1.2 mammary tumor cells", "assay": "MTT viability assay", "type": "cell-based, mouse", "source_text": "(§3) In vitro assays. Cellular viability was examined using an MTT assay (Invitrogen, Carlsbad, CA, USA) with the procedure previously described, as well as an EdU assay with a fluorescence-based cell proliferation kit (Thermo-Fisher, Waltham, MA, USA). The recombinant proteins employed included Filamin A, Pkm, Pdia3, Tpm4, Anxa2, Eef1a1, Cts1, Nme2, Dcn, Calr, Aldoa, Calm1, Tpm3, Ppib, Myh9, Ywhae, Hspa5, Hsp90aa1 (MBS962910, MBS8249600, MBS2010131, MBS145304, MBS2009095, MBS2033168, MBS143355, MBS145412, MBS2557309, MBS2009125, MBS8248528, MBS2018713, MBS144696, MBS2009092, MBS717396, MBS143242, MBS806904, MBS142709; MyBioSource, San Diego, CA, USA), Actin Gamma 1, Actn4, Hspa8, Vimentin (H00000071-P01, H00000081-P01, NBP1-30278, NBP2-35139; Novus, Littleton, CO, USA), and Hsp90ab1 (OPCA05157; Aviva system biology, San Diego, CA, USA). A TRANSWELL® chamber assay was conducted to detect invasive cellular motility, and a wound-healing scratch assay was utilized to evaluate 2-dimensional migratory behavior. The overexpression of Akt, Lrp5, β-catenin, Snail, Calr, and Ppib was conducted by transfecting plasmids (#10841, #115907, #31785, #31697, #51161, #36123; Addgene, Cambridge, MA, USA). […]"}, "[8]": {"test_system": "4T1.2 mammary tumor cells", "assay": "TRANSWELL invasion assay", "type": "cell-based, mouse", "source_text": "as §3"}, "[9]": {"test_system": "4T1.2 mammary tumor cells", "assay": "EdU proliferation assay", "type": "cell-based, mouse", "experimental": "EdU assay. Approximately 2,000 cells were seeded in 96-well plates on day 1. CM was added on day 2 and cellular proliferation was examined using a fluorescence-based cell proliferation kit (CLICK-IT™ EDU ALEXA FLUOR™ 488 Imaging Kit; Thermo-Fisher, Waltham, MA, USA) on day 4. After fluorescent labeling, the number of fluorescently labeled cells was counted and the ratio to the total number of cells was determined.\nas §3, with “USA).” for “USA). A TRANSWELL® chamber assay was conducted to detect invasive cellular motility, and a wound-healing scratch assay was utilized to evaluate 2-dimensional migratory behavior. The overexpression of Akt, Lrp5, β-catenin, Snail, Calr, and Ppib was conducted by transfecting plasmids (#10841, #115907, #31785, #31697, #51161, #36123; Addgene, Cambridge, MA, USA).”"}, "[10]": {"test_system": "EO771 cells", "assay": "Western blot of proteins in treated tumor cells", "type": "cell-based, mouse", "experimental": "Western blot analysis and mass spectrometry. Western blot analysis was conducted using known procedures. Antibodies were used against ANXA1, β-catenin, caspase 3, Lrp5, Lrp6, Runx2, Sclerostin, Snail, TGFβ, NFATc1, cathepsin K (Cell Signaling, Danvers, MA, USA), DMP1, ANXA6, CXCL5 (Abcam, Cambridge, MA, USA), M-CSF, MMP9, OPN, TPM4 (Santa Cruz, Dallas, TX, USA), WISP1 (R&D systems, Minneapolis, MN, USA), β-actin (Sigma, Saint Louis, MO, USA), LIMA1, Trail (Novus, Centennial, CO, USA), p53 and CXCL1 (Invitrogen, Carlsbad, California, USA), and DSP (ProteinTech, Rosemont, IL, USA). The expression levels of Sclerostin and Lrp5 in CM were detected by ELISA (My BioSource, San Diego, CA, USA). Proteins from A5 osteocyte CM, Y4 osteocyte CM, and osteoclast control CM (RAW264.7 cells) were analyzed by the HF Hybrid Quadrupole Orbitrap mass spectrometry. Among 549 identified proteins, 49 proteins presented higher expression levels in A5 CM than Y4 CM and control CM. […]\nWestern blot analysis and protein array analysis. […] A proteome profiler mouse XL cytokine array kit (R&D Systems, Minneapolis, MN, USA) was also employed, and the expression of 111 cytokines and chemokines in MSC-derived CM was determined. […]"}, "[11]": {"assay": "Estimation of the diffusion coefficient through the skull", "type": "physicochemical, mouse", "source_text": "Estimation of the diffusion coefficient through the skull. Suppose that the two aqueous reservoirs are separated by a skull and the solute (albumin) in the first reservoir with the volume V1 is transferred to the second reservoirs with the volume V2. When the volume of the skull is negligible, the change in the solute in the first reservoir is approximated, using the quasi-steady-state flux, N according to Eq. (1) and Eq. (2):\nWhere t=time, and c 1 (t) and c 2 (t)=concentrations in the first and second reservoirs, respectively, A=skull surface area, D=diffusion coefficient through the skull, and L=skull thickness. Since the decrease in the first reservoir is equivalent to the gain in the second reservoir, Eq. (3) is arrived at:\nIf the initial concentrations are c1(t=0)=c0 and c2 (t=0)=0, the concentration c1 is predicted as a function of time according to Eq. (4):\nThe diffusion coefficient of albumin in the skull was estimated as 3.30×10^−8 cm^2/s from the slope (0.7157) of the best-fit line of Eq. (4) in FIG. 36B. Of note, V1=265 μl, V2=65 μl, c0=10 μg/μ1, A=188 mm^2, and L=60 μm."}}}
{"molecule": "COc1cccc(-c2cc(NCc3ccc4c(c3)OCO4)nc(N)n2)c1", "note": "[BML284]", "values": [{"measurement": "number of EO771 tumor cells in the lung", "setting": "[1]", "result": "Reduction"}]}
{"molecule": "OCCN1CCN(CCCN2c3ccccc3Sc3ccc(C(F)(F)F)cc32)CC1", "note": "[Fluphenazine]", "values": [{"measurement": "viability of EO771 tumor cells in the inside of the skull", "setting": "[2]", "result": "significantly decreased"}, {"measurement": "size of human breast cancer fragments in the inside of the skull", "setting": "[3]", "result": "significantly shrunk"}]}
{"molecule": "Oc1cc2c(cc1O)C(Cc1cccc3ccccc13)NCC2", "note": "(stereo not shown) [YS49]", "values": [{"measurement": "phosphorylated Akt in MSCs", "setting": "[4]", "result": "elevated"}]}
{"molecule": "Hsp90aa1: Hsp90aa1 recombinant protein", "values": [{"measurement": "tumor-promoting genes (Lrp5, MMP9, Runx2, TGFβ, Snail) in 4T1.2 cells", "setting": "[5]", "result": "did not alter"}]}
{"molecule": "Hsp90ab1: recombinant heat shock protein 90 alpha family class B member 1", "values": [{"measurement": "scratch-based migration of 4T1.2 cells", "setting": "[6]", "result": "reduced"}, {"measurement": "tumor-promoting genes (Lrp5, MMP9, Runx2, TGFβ, Snail) in 4T1.2 cells", "setting": "[5]", "result": "downregulated"}, {"measurement": "MTT-based viability of 4T1.2 cells", "setting": "[7]", "result": "Significant reduction"}]}
{"molecule": "Ppib: recombinant peptidylprolyl isomerase B", "values": [{"measurement": "phosphorylation level of eIF2α in 4T1.2 cells", "setting": "[5]", "result": "elevated"}, {"measurement": "tumor-promoting genes (Lrp5, MMP9, Runx2, TGFβ, Snail) in 4T1.2 cells", "setting": "[5]", "result": "suppressed"}, {"measurement": "TRANSWELL invasion of 4T1.2 cells", "setting": "[8]", "result": "significantly inhibited"}, {"measurement": "EdU-based proliferation of 4T1.2 cells", "setting": "[9]", "result": "significantly inhibited"}, {"measurement": "MTT-based viability of 4T1.2 cells", "setting": "[7]", "result": "Significant reduction"}]}
{"molecule": "TGFβ", "values": [{"measurement": "tumor-promoting/tumorigenic proteins (Lrp5, MMP9, Runx2, TGFβ, Snail, IL1β etc.) in EO771 cells", "setting": "[10]", "result": "increased"}]}
{"molecule": "albumin: bovine serum albumin, solute for skull diffusion", "values": [{"measurement": "diffusion coefficient across the skull relative to aqueous solution, fold smaller", "setting": "[11]", "result": "approximately 20 fold"}, {"measurement": "diffusion coefficient across the skull", "setting": "[11]; murine skull, estimated from slope of Eq. (4)", "result": "3.30×10^−8 cm^2/s"}]}
